# From PubChem BioAssay AID1963960 (Molecular Pharmacology Branch, DTP, NCI, 2024)
# Test system: MDA-MB-468 spheroids with HUVEC/MSC, viability
# Test: Anticancer human tumor MDA-MB-468 cell line growth inhibition [PI3K];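 note: spheroids exposed to agents for seven days before readout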;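 for viability, T/C: 100% = DMSO vehicle control viability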
# Settings: for IC50: curve of first compound; for viability, T/C: stronger effect = lower value
# Summary of the method: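 Stroma-containing spheroids: tumor line, pooled-donor HUVEC, hMSC. Treatments: targeted agents with PI3K inhibitors. Dosing: clinically relevant, half-log spacing, 10 microM ceiling without known Cmax. Read-out: cell viability.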
# [1] = second compound 0.0316 µM, first compound 0.0316 µM
# [2] = second compound 0.0316 µM, first compound 0.1 µM
# [3] = second compound 0.0316 µM, first compound 0.316 µM
# [4] = second compound 0.0316 µM, first compound 1 µM
# [5] = second compound 0.0316 µM, first compound 3.16 µM
# [6] = second compound 0.0316 µM, first compound 10 µM
# [7] = second compound 0.1 µM, first compound 0.0316 µM
# [8] = second compound 0.1 µM, first compound 0.1 µM
# [9] = second compound 0.1 µM, first compound 0.316 µM
# [10] = second compound 0.1 µM, first compound 1 µM
# [11] = second compound 0.1 µM, first compound 3.16 µM
# [12] = second compound 0.1 µM, first compound 10 µM
# [13] = second compound 0.316 µM, first compound 0.0316 µM
# [14] = second compound 0.316 µM, first compound 0.1 µM
# [15] = second compound 0.316 µM, first compound 0.316 µM
# [16] = second compound 0.316 µM, first compound 1 µM
# [17] = second compound 0.316 µM, first compound 3.16 µM
# [18] = second compound 0.316 µM, first compound 10 µM
# [19] = second compound 1 µM, first compound 0.0316 µM
# [20] = second compound 1 µM, first compound 0.1 µM
# [21] = second compound 1 µM, first compound 0.316 µM
# [22] = second compound 1 µM, first compound 1 µM
# [23] = second compound 1 µM, first compound 3.16 µM
# [24] = second compound 1 µM, first compound 10 µM
# [25] = second compound 3.16 µM, first compound 0.0316 µM
# [26] = second compound 3.16 µM, first compound 0.1 µM
# [27] = second compound 3.16 µM, first compound 0.316 µM
# [28] = second compound 3.16 µM, first compound 1 µM
# [29] = second compound 3.16 µM, first compound 3.16 µM
# [30] = second compound 3.16 µM, first compound 10 µM
# [31] = second compound 10 µM, first compound 0.0316 µM
# [32] = second compound 10 µM, first compound 0.1 µM
# [33] = second compound 10 µM, first compound 0.316 µM
# [34] = second compound 10 µM, first compound 1 µM
# [35] = second compound 10 µM, first compound 3.16 µM
# [36] = second compound 10 µM, first compound 10 µM
smiles,measurement,setting,value
C=CC(=O)N1CCN(c2nc(=O)n(-c3c(C)ccnc3C(C)C)c3nc(-c4c(O)cccc4F)c(F)cc23)C(C)C1 (stereo not given) + CC(Nc1ncnc2nc[nH]c12)c1cc2cccc(Cl)c2c(=O)n1-c1ccccc1,IC50,second compound 0.0316 µM,> 10 µM
same,IC50,second compound 0.1 µM,> 10 µM
same,IC50,second compound 0.316 µM,> 10 µM
same,IC50,second compound 1 µM,> 10 µM
same,IC50,second compound 3.16 µM,> 10 µM
same,IC50,second compound 10 µM,< 0.0316 µM
same,"viability, T/C",[1],88.1%
same,"viability, T/C",[2],93%
same,"viability, T/C",[3],99.4%
same,"viability, T/C",[4],99.3%
same,"viability, T/C",[5],86.1%
same,"viability, T/C",[6],74.2%
same,"viability, T/C",[7],89.3%
same,"viability, T/C",[8],79.8%
same,"viability, T/C",[9],83.7%
same,"viability, T/C",[10],94.2%
same,"viability, T/C",[11],91.1%
same,"viability, T/C",[12],73.7%
same,"viability, T/C",[13],70.4%
same,"viability, T/C",[14],74.4%
same,"viability, T/C",[15],84.3%
same,"viability, T/C",[16],94.7%
same,"viability, T/C",[17],76.9%
same,"viability, T/C",[18],61.4%
same,"viability, T/C",[19],70.6%
same,"viability, T/C",[20],61.4%
same,"viability, T/C",[21],82.2%
same,"viability, T/C",[22],84.6%
same,"viability, T/C",[23],84.4%
same,"viability, T/C",[24],60.6%
same,"viability, T/C",[25],54.5%
same,"viability, T/C",[26],57.1%
same,"viability, T/C",[27],61.4%
same,"viability, T/C",[28],68.5%
same,"viability, T/C",[29],70.6%
same,"viability, T/C",[30],51%
same,"viability, T/C",[31],41%
same,"viability, T/C",[32],46.7%
same,"viability, T/C",[33],47.1%
same,"viability, T/C",[34],51.1%
same,"viability, T/C",[35],50.1%
same,"viability, T/C",[36],37.4%
CC(Cn1ccc(-c2ccc(C#N)c(Cl)c2)n1)NC(=O)c1cc(C(C)O)[nH]n1 (stereo not given) + CC(Nc1ncnc2nc[nH]c12)c1cc2cccc(Cl)c2c(=O)n1-c1ccccc1,IC50,second compound 0.0316 µM,> 10 µM
same,IC50,second compound 0.1 µM,> 10 µM
same,IC50,second compound 0.316 µM,> 10 µM
same,IC50,second compound 1 µM,> 10 µM
same,IC50,second compound 3.16 µM,> 10 µM
same,IC50,second compound 10 µM,< 0.0316 µM
same,"viability, T/C",[1],82%
same,"viability, T/C",[2],92.4%
same,"viability, T/C",[3],90.2%
same,"viability, T/C",[4],90.3%
same,"viability, T/C",[5],88.8%
same,"viability, T/C",[6],79.1%
same,"viability, T/C",[7],86.8%
same,"viability, T/C",[8],80.7%
same,"viability, T/C",[9],76.5%
same,"viability, T/C",[10],88.4%
same,"viability, T/C",[11],89%
same,"viability, T/C",[12],71.7%
same,"viability, T/C",[13],85.7%
same,"viability, T/C",[14],93.6%
same,"viability, T/C",[15],72.7%
same,"viability, T/C",[16],76.1%
same,"viability, T/C",[17],70.7%
same,"viability, T/C",[18],66.3%
same,"viability, T/C",[19],55.9%
same,"viability, T/C",[20],69.1%
same,"viability, T/C",[21],60.2%
same,"viability, T/C",[22],73.9%
same,"viability, T/C",[23],66.6%
same,"viability, T/C",[24],57.6%
same,"viability, T/C",[25],60.6%
same,"viability, T/C",[26],58.8%
same,"viability, T/C",[27],60.8%
same,"viability, T/C",[28],52.4%
same,"viability, T/C",[29],56.5%
same,"viability, T/C",[30],47.1%
same,"viability, T/C",[31],45.8%
same,"viability, T/C",[32],40.5%
same,"viability, T/C",[33],40.7%
same,"viability, T/C",[34],43.1%
same,"viability, T/C",[35],44.5%
same,"viability, T/C",[36],38.6%
CCN1CCN(Cc2ccc(Nc3ncc(F)c(-c4cc(F)c5nc(C)n(C(C)C)c5c4)n3)nc2)CC1 + CC(Nc1ncnc2nc[nH]c12)c1cc2cccc(Cl)c2c(=O)n1-c1ccccc1,IC50,second compound 0.0316 µM,> 1 µM
same,IC50,second compound 0.1 µM,> 1 µM
same,IC50,second compound 0.316 µM,> 1 µM
same,IC50,second compound 1 µM,> 1 µM
same,IC50,second compound 3.16 µM,> 1 µM
same,IC50,second compound 10 µM,< 0.00316 µM
same,"viability, T/C","second compound 0.0316 µM, first compound 0.00316 µM",98.7%
same,"viability, T/C","second compound 0.0316 µM, first compound 0.01 µM",89.8%
same,"viability, T/C",[1],88.1%
same,"viability, T/C",[2],88.1%
same,"viability, T/C",[3],85.3%
same,"viability, T/C",[4],67.9%
same,"viability, T/C","second compound 0.1 µM, first compound 0.00316 µM",85.3%
same,"viability, T/C","second compound 0.1 µM, first compound 0.01 µM",92.7%
same,"viability, T/C",[7],94.1%
same,"viability, T/C",[8],93.7%
same,"viability, T/C",[9],79.3%
same,"viability, T/C",[10],60.1%
same,"viability, T/C","second compound 0.316 µM, first compound 0.00316 µM",78.3%
same,"viability, T/C","second compound 0.316 µM, first compound 0.01 µM",81.1%
same,"viability, T/C",[13],82.3%
same,"viability, T/C",[14],65.5%
same,"viability, T/C",[15],81%
same,"viability, T/C",[16],56.6%
same,"viability, T/C","second compound 1 µM, first compound 0.00316 µM",58.2%
same,"viability, T/C","second compound 1 µM, first compound 0.01 µM",70%
same,"viability, T/C",[19],69.5%
same,"viability, T/C",[20],61.7%
same,"viability, T/C",[21],56.9%
same,"viability, T/C",[22],51.5%
same,"viability, T/C","second compound 3.16 µM, first compound 0.00316 µM",60.9%
same,"viability, T/C","second compound 3.16 µM, first compound 0.01 µM",57.4%
same,"viability, T/C",[25],57.9%
same,"viability, T/C",[26],53.7%
same,"viability, T/C",[27],55.1%
same,"viability, T/C",[28],48.1%
same,"viability, T/C","second compound 10 µM, first compound 0.00316 µM",40.9%
same,"viability, T/C","second compound 10 µM, first compound 0.01 µM",42.4%
same,"viability, T/C",[31],41%
same,"viability, T/C",[32],40%
same,"viability, T/C",[33],37.8%
same,"viability, T/C",[34],31.8%
Cn1ncc(Cl)c1-c1cc(C(=O)NC(CN)Cc2cccc(F)c2)sc1Cl (stereo not given) + CC(Nc1ncnc2nc[nH]c12)c1cc2cccc(Cl)c2c(=O)n1-c1ccccc1,IC50,second compound 0.0316 µM,0.293 µM
same,IC50,second compound 0.1 µM,0.338 µM
same,IC50,second compound 0.316 µM,0.331 µM
same,IC50,second compound 1 µM,0.242 µM
same,IC50,second compound 3.16 µM,0.0442 µM
same,IC50,second compound 10 µM,< 0.0316 µM
same,"viability, T/C",[1],83.2%
same,"viability, T/C",[2],73.1%
same,"viability, T/C",[3],45.6%
same,"viability, T/C",[4],32.3%
same,"viability, T/C",[5],26%
same,"viability, T/C",[6],17.7%
same,"viability, T/C",[7],84.6%
same,"viability, T/C",[8],65.5%
same,"viability, T/C",[9],50.3%
same,"viability, T/C",[10],35.9%
same,"viability, T/C",[11],29.7%
same,"viability, T/C",[12],16.1%
same,"viability, T/C",[13],68.7%
same,"viability, T/C",[14],63.4%
same,"viability, T/C",[15],51.1%
same,"viability, T/C",[16],33.9%
same,"viability, T/C",[17],29.1%
same,"viability, T/C",[18],18.6%
same,"viability, T/C",[19],58.4%
same,"viability, T/C",[20],60.1%
same,"viability, T/C",[21],47%
same,"viability, T/C",[22],32.9%
same,"viability, T/C",[23],27.8%
same,"viability, T/C",[24],17.9%
same,"viability, T/C",[25],51.7%
same,"viability, T/C",[26],45.4%
same,"viability, T/C",[27],40.8%
same,"viability, T/C",[28],32.6%
same,"viability, T/C",[29],25.9%
same,"viability, T/C",[30],20.2%
same,"viability, T/C",[31],40.4%
same,"viability, T/C",[32],41.6%
same,"viability, T/C",[33],36.3%
same,"viability, T/C",[34],28%
same,"viability, T/C",[35],23.8%
same,"viability, T/C",[36],15.5%
Cn1nccc1Nc1nccc(-c2ccn(C(CO)c3ccc(Cl)c(F)c3)c(=O)c2)n1 (stereo not given) + CC(Nc1ncnc2nc[nH]c12)c1cc2cccc(Cl)c2c(=O)n1-c1ccccc1,IC50,second compound 0.0316 µM,> 10 µM
same,IC50,second compound 0.1 µM,> 10 µM
same,IC50,second compound 0.316 µM,> 10 µM
same,IC50,second compound 1 µM,> 10 µM
same,IC50,second compound 3.16 µM,> 10 µM
same,IC50,second compound 10 µM,< 0.0316 µM
same,"viability, T/C",[1],74.2%
same,"viability, T/C",[2],84.5%
same,"viability, T/C",[3],79.5%
same,"viability, T/C",[4],79.6%
same,"viability, T/C",[5],79.4%
same,"viability, T/C",[6],78.3%
same,"viability, T/C",[7],80.1%
same,"viability, T/C",[8],86.1%
same,"viability, T/C",[9],77.8%
same,"viability, T/C",[10],96.7%
same,"viability, T/C",[11],83.8%
same,"viability, T/C",[12],73.5%
same,"viability, T/C",[13],73.1%
same,"viability, T/C",[14],69.3%
same,"viability, T/C",[15],68.4%
same,"viability, T/C",[16],73%
same,"viability, T/C",[17],78.5%
same,"viability, T/C",[18],78.9%
same,"viability, T/C",[19],65.7%
same,"viability, T/C",[20],59.8%
same,"viability, T/C",[21],62%
same,"viability, T/C",[22],71.8%
same,"viability, T/C",[23],73.4%
same,"viability, T/C",[24],72%
same,"viability, T/C",[25],56.6%
same,"viability, T/C",[26],55.1%
same,"viability, T/C",[27],49%
same,"viability, T/C",[28],63.2%
same,"viability, T/C",[29],54.5%
same,"viability, T/C",[30],48.8%
same,"viability, T/C",[31],33.8%
same,"viability, T/C",[32],34.8%
same,"viability, T/C",[33],31.1%
same,"viability, T/C",[34],32.2%
same,"viability, T/C",[35],39.2%
same,"viability, T/C",[36],27.6%
